Reference: BigSolDB 2.1

O=[N+]([O-])c1cc([N+](=O)[O-])c(O)c(Cl)c1O
Conditions	solubility (mole fraction)
in acetic acid, 299.35 K	0.00649
in acetic acid, 305.55 K	0.00872
in acetic acid, 311.45 K	0.0112
in acetic acid, 315.05 K	0.013
in acetic acid, 318.75 K	0.0149
in acetic acid, 321.85 K	0.0167
in acetic acid, 323.95 K	0.0179
in acetic acid, 327.65 K	0.0202
in acetic acid, 334.65 K	0.0248
in acetic acid, 336.45 K	0.026
in acetic acid, 340.45 K	0.0289
in acetic acid, 343.15 K	0.0308
in ethanol, 299.35 K	0.00297
in ethanol, 303.15 K	0.00355
in ethanol, 307.35 K	0.00428
in ethanol, 310.75 K	0.00493
in ethanol, 314.25 K	0.00568
in ethanol, 317.65 K	0.00648
in ethanol, 320.15 K	0.00711
in ethanol, 326.35 K	0.00882
in ethanol, 329.85 K	0.00989
in ethanol, 332.65 K	0.0108
in ethanol, 335.45 K	0.0118
in ethanol, 339.15 K	0.0131
in ethanol, 343.75 K	0.0148
in ethyl acetate, 298.75 K	0.0449
in ethyl acetate, 302.65 K	0.0474
in ethyl acetate, 306.25 K	0.0498
in ethyl acetate, 309.95 K	0.0525
in ethyl acetate, 313.85 K	0.0555
in ethyl acetate, 318.15 K	0.0589
in ethyl acetate, 323.15 K	0.0633
in ethyl acetate, 327.25 K	0.067
in ethyl acetate, 331.85 K	0.0716
in ethyl acetate, 333.35 K	0.0731
in ethyl acetate, 337.15 K	0.0772
in ethyl acetate, 342.55 K	0.0834
in ethyl acetate, 344.95 K	0.0863
in methanol, 299.75 K	0.00172
in methanol, 305.95 K	0.00239
in methanol, 308.75 K	0.00277
in methanol, 311.25 K	0.00316
in methanol, 313.65 K	0.00359
in methanol, 315.95 K	0.00406
in methanol, 318.15 K	0.00456
in methanol, 320.75 K	0.00524
in methanol, 323.35 K	0.006
in methanol, 327.05 K	0.00731
in methanol, 330.15 K	0.0086
in water, 298.85 K	3.49e-05
in water, 301.15 K	3.65e-05
in water, 303.65 K	4.23e-05
in water, 306.35 K	4.59e-05
in water, 309.05 K	4.86e-05
in water, 311.35 K	5.44e-05
in water, 313.35 K	5.67e-05
in water, 315.75 K	6.29e-05
in water, 318.15 K	6.8e-05
in water, 320.65 K	7.62e-05
in water, 323.15 K	8.17e-05
in water, 325.85 K	9.12e-05
in water, 327.45 K	9.79e-05
in water, 330.15 K	0.000106
in water, 332.25 K	0.000113
in water, 336.35 K	0.00013
in water, 339.55 K	0.000142
in water, 341.95 K	0.000152
